PMC7180617, “Biological Evaluation of 3-Benzylidenechromanones and Their Spiropyrazolines-Based Analogues” (Molecules, 2020)
“And” between values parts separate entries of the source, which are not always exact repeats. Equal entries are not always repeated.

What was measured:
erythrocytes = test: Red blood cell morphology (phase-contrast microscopy); format: cell-based; details: 2% erythrocyte suspension, 37 °C, 1 h, phase contrast 400×
Description: Studies on erythrocyte morphology complement the erythrotoxicity studies because they provide information on potential immediate interactions of the tested compounds with the erythrocyte lipid bilayer, and the possibility of creating pathological forms of erythrocytes, which are not able to carry oxygen. The effects of the synthesized compounds, and the two reference compounds chromanone and flavanone, on the morphology of erythrocytes is shown in Figure 6. Briefly, 2% RBC suspension was incubated with 0.9% NaCl (control samples) or tested compounds at various concentrations corresponding to their activity towards cancer cell lines.
A 2% erythrocyte suspension was incubated at 37 °C for one hour with various concentrations of synthesized compounds. The morphology of the RBCs was examined by means of a phase contrast Opta-Tech inverted microscope, at 400× magnification, equipped with software (OptaView 7) for image analysis.

HL-60 cells [1] = test: MTT cytotoxicity assay, HL-60; format: cell-based, human; details: Homo sapiens, HL-60, 48 h, MTT, 46 h + 2 h incubation
Description: (§1) The first stage of the study used the MTT viability test to determine the cytotoxicity of ten compounds, i.e., 3-arylidenechromanone, 3-arylideneflavanone, spirochromanone and spiro- flavanone analogues, against four human cancer cell lines: HL-60, NALM-6, WM-115 and COLO-205.
(§2) Cytotoxicity was tested against human skin melanoma cells (WM-115, ECACC, Salisbury, UK), two human leukemia cell lines, viz. promyelocytic leukemia (HL-60) and lymphoblastic leukemia (NALM-6), and human colon adenocarcinoma cells (COLO-205). The cell lines COLO-205, WM-115 and HL-60 used in this work came from the ATCC American Type Culture Collection (Manassas, VA, USA), whereas the NALM-6 cell line was purchased from the German Collection of Microorganisms and Cell Cultures (Braunschweig, Germany). The leukaemia cells and colon adenocarcinoma were cultured in RPMI 1640 medium (Invitrogen, Grand Island, NY, USA) supplemented with 10% fetal bovine serum (FBS; Invitrogen) and gentamicin (25 µg/mL; KRKA, Novo Mesto, Slovenia). For melanoma WM-115 cells, Dulbecco’s minimal essential medium (DMEM; Invitrogen) was used. All cell lines were cultured at 37 °C in a humidified atmosphere of 5% CO2 in air.
(§3) For all experiments, the studied compounds were dissolved in DMSO (Sigma-Aldrich) and were further diluted in culture medium to obtain <0.1% DMSO concentration. In each experiment, controls with and without 0.1% DMSO were performed. The cytotoxicity of all compounds and of the reference compounds 4-chromanone and 3-benzylideneflavanone was determined by the MTT assay, i.e., 3-(4,5-dimethylthiazol-2-yl)-2,5-diphenyltetrazolium bromide (Sigma, St. Louis, MO, USA), which measures cellular dehydrogenase activity. Exponentially growing cells were seeded a day before the experiment onto a 96-well microplates (Nunc, Roskilde, Denmark) at a density up to 6–8 × 10^3 cells/well (depending on the cell line). Subsequently, various concentrations of the studied compounds freshly prepared in DMSO and diluted with complete culture medium were added. All compounds were tested for their cytotoxicity at a final concentration of 10^−7–10^−3 M. After 46 h of incubation with the studied compounds, the cells were treated with the MTT reagent and incubation was continued for another two hours. MTT – formazan crystals were dissolved in 20% sodium dodecyl sulphate (SDS, Sigma-Aldrich) and 50% DMF (Sigma-Aldrich) at pH 4.7; following this, absorbance was read at 570 nm on a multifunctional Victor ELISA-plate reader (Perkin Elmer, Turku, Finland). The IC50 values, i.e., the concentration of the test compound required to reduce the cell survival fraction to 50% of controls, were calculated from concentration-response curves and used as a measure of the sensitivity of the cells to a given treatment. As a control, cultured cells were grown in the absence of drugs. The data points represent the means of at least five to ten repeats ± standard deviation (S.D.).

[2] = Lipophilicity (logP) by RP-TLC; details: RP-18 F254S TLC plates
HL-60 cells [3] = test: Cell cycle analysis by flow cytometry (propidium iodide); format: cell-based, human; details: for cell cycle, G1, mean / cell cycle, G2/M, mean / cell cycle, S, mean: mean of n=2; for cell cycle distribution, G1 / cell cycle distribution, G2 / cell cycle distribution, G2/M: HL-60, 20 h, mean ± SD, n = 2
Description: The next stage examined the effects of the selected compounds on cell cycle progression in HL-60 leukemia cells. […] One million HL-60 (subline CCL 240; cell type: promyeloblast) cells in 3 mL of RPMI 1640 supplemented with 20% FBS were seeded on 6-well plate. […] Fixed cells were stored in −20 °C for 2–3 days. Before analysis, cells were centrifuged (10 min, 1500 rpm, 4 °C) and washed twice with cold PBS. After the second wash, the cells were suspended in 1mL of PBS containing 100 μg of RNase A and incubated in 37 °C for 10 min. Next, 5 μL of solution of propidium iodide (1 mg/mL) was added to each sample and incubated in dark for 30 min at RT. Stained cells were analyzed by flow cytometry (FACS Calibur, BD Biosciences, San Jose, CA, USA). Data from 10,000 gated cells were collected using CellQuestPro software (Ver 6.0, Becton Dickinson) and cell cycle analysis was performed with ModFit LT software (Ver 3.2, Verity Software House, Topsham, ME, USA).

WM-115 cells = test: MTT cytotoxicity assay, WM-115; format: cell-based, human; details: Homo sapiens, WM-115, 48 h, MTT, 46 h + 2 h incubation
Description: as §1, §2, §3

[4] = Figure S3, HL-60, 0.5 × IC50 (µM: quercetin 29, 1 1.5, 7 18, 10 4.7, 11 4.5, 12 6)
[5] = Figure S3, HL-60, 0.5 × IC50, each of two repetitions
[6] = Figure S3, HL-60, 1 × IC50 (µM: quercetin 58, 1 3, 7 35, 10 9.4, 11 9, 12 12)
[7] = Figure S3, HL-60, 1 × IC50, each of two repetitions
[8] = 0.5 × IC50 (µM: quercetin 29, 2 1.5, 7 18, 12 6, 11 4.5, 10 4.7)
[9] = 1 × IC50 (µM: quercetin 58, 2 3, 7 35, 12 12, 11 9, 10 9.4)

Q: For `O=C1/C(=C/c2ccccc2)COc2ccccc21` [Compound 7, (E)-3-benzylidene-chroman-4-one], which “erythrocyte morphology (in words)” value (erythrocytes) is on record?
A: primarily led to echinocytosis, however single anisocytes could also be detected

Q: And the IC50 (HL-60 cells [1])?
A: 34.8 ± 2.87 µM

Q: What about the chromatographic logP [2] of the same compound?
A: 4.23

Q: What about the “cell cycle, G1, mean” value (HL-60 cells [3]; [4]) of the same compound?
A: 57,71%

Q: And the “cell cycle, G2/M, mean” value (HL-60 cells [3]; [4])?
A: 20,82%

Q: And the “cell cycle, S, mean” value (HL-60 cells [3]; [4])?
A: 21,48%

Q: What about the “cell cycle, G1, single repetitions” value (HL-60 cells [3]; [5]) of the same compound?
A: 52,64% and 62,77%

Q: What about the “cell cycle, G2/M, single repetitions” value (HL-60 cells [3]; [5]) of the same compound?
A: 18,44% and 23,20%

Q: What about the “cell cycle, S, single repetitions” value (HL-60 cells [3]; [5]) of the same compound?
A: 18,79% and 24,16%

Q: What about the “cell cycle, G1, mean” value (HL-60 cells [3]; Figure S3, HL-60, 1 × IC50 (µM in parenthesis: quercetin 58, 1 3, 7 35, 10 9.4, 11 9, 12 12)) of the same compound?
A: 50,37%

Q: What about the “cell cycle, G2/M, mean” value (HL-60 cells [3]; [6]) of the same compound?
A: 26,09%

Q: And the “cell cycle, S, mean” value (HL-60 cells [3]; [6])?
A: 23,55%

Q: What about the “cell cycle, G1, single repetitions” value (HL-60 cells [3]; [7]) of the same compound?
A: 51,06% and 49,68%

Q: And the “cell cycle, G2/M, single repetitions” value (HL-60 cells [3]; [7])?
A: 26,04% and 26,13%

Q: And the “cell cycle, S, single repetitions” value (HL-60 cells [3]; [7])?
A: 22,89% and 24,20%

Q: What about the “cell cycle distribution, G1” value (HL-60 cells [3]; [8]) of the same compound?
A: 57.7 ± 7.2%

Q: And the “cell cycle distribution, G2” value (HL-60 cells [3]; [8])?
A: 21.5 ± 3.8%

Q: And the “cell cycle distribution, G2/M” value (HL-60 cells [3]; [8])?
A: 20.8 ± 3.4%

Q: And the “cell cycle distribution, G1” value (HL-60 cells [3]; [9])?
A: 50.4 ± 1.0%

Q: What about the “cell cycle distribution, G2” value (HL-60 cells [3]; [9]) of the same compound?
A: 23.5 ± 0.9%

Q: What about the “cell cycle distribution, G2/M” value (HL-60 cells [3]; [9]) of the same compound?
A: 26.1 ± 0.1%

Q: And the “cells arrested in G2/M phase” value (HL-60 cells [3]; HL-60, concentrations of IC50 and 0.5 × IC50)?
A: 20–26%

Q: What about the IC50 (WM-115 cells) of the same compound?
A: 12.8 ± 1.83 µM
